Test results from ChEMBL document CHEMBL1155666, “Zygosporin D and two new cytochalasins produced by the fungus Metarrhizium anisopliae” (2000).

What was measured:
Oryza sativa [1] = experiment: Growth retardation of rice seedlings assessed as second leaf sheath length at 1 nmol after 72 hrs exposure to continuous fluorescent light relative to control; format: functional
Oryza sativa [2] = experiment: Growth retardation of rice seedlings assessed as reduction in second leaf sheath length at 1 nmol after 72 hrs exposure to continuous fluorescent light relative to water; format: functional; design: scale not given: the % may be the effect or the level left

SMILES | Activity (Oryza sativa [1]) | Activity (Oryza sativa [2])
C[C@H]1[C@H]2[C@H](Cc3ccccc3)NC(=O)[C@]23[C@H](O)/C=C/[C@@](C)(O)C(=O)[C@@H](C)C/C=C/[C@H]3C(=O)[C@@H]1C | 94% | 
CC1=C(C)[C@H]2[C@H](Cc3ccccc3)NC(=O)[C@]23[C@H](O)/C=C/[C@@](C)(O)C(=O)[C@@H](C)C/C=C/[C@H]3[C@@H]1O [DEACETYLCYTOCHALASIN C] | 83% | 
C=C1[C@@H](C)[C@H]2[C@H](Cc3ccccc3)NC(=O)[C@]23[C@H](O)/C=C/[C@@](C)(O)C(=O)[C@@H](C)C/C=C/[C@H]3[C@@H]1O [ZYGOSPORIN D] |  | 41%
